Reference: paper PMC8502442 (Pharmacology Research & Perspectives, 2021)
Where two headings read alike, the source gives them in different places.

How the values were obtained:
[1] = rat, cited from earlier work
parental MDCK cell = parental MDCK cell assay; cited from earlier work
[2] = Rat pharmacokinetics following an IV single bolus; type: in vivo; details: plasma, 1 mg/kg
[3] = rat microdialysis, brain versus blood; cited from earlier work
[4] = male, Sprague-Dawley, rat, intravenous, n = 3, mean ± SD
[5] = humans; cited from earlier work
[6] = K puu liver, ratio of unbound liver concentration to unbound blood concentration at steady state
[7] = K puu muscle, ratio of unbound muscle concentration to unbound blood concentration at steady state

## CC(C)NCC(O)COc1cccc2ccccc12 (stereo not shown) [Propranolol, propranolol]
[1]; ref 18, 19, 20, 21, 22, 23
  reported plasma CL: 70 to 90 mL/min/kg
Parental MDCK cell
  P app: 11 ×10⁻⁶ cm/s

## COc1ccc([C@@H]2Sc3ccccc3N(CCN(C)C)C(=O)[C@@H]2OC(C)=O)cc1 [Diltiazem, diltiazem]
[1]; ref 18, 19, 20, 21, 22, 23
  reported plasma CL: 90 mL/min/kg

## COc1ccc(CN(CCN(C)C)c2ccccn2)cc1 [Pyrilamine, pyrilamine]
[2]
  Vd: 12.6 ± 1.6 L/kg
  clearance: 167 ± 24 mL/min/kg
  half-life: 2.16 ± 0.63 h
[3]
  reported K puu,brain: 2.50

## CC12CC3CC(C)(C1)CC(N)(C3)C2 [Memantine, memantine]
[2]
  Vd: 7.36 ± 1.58 L/kg
  clearance: 60.5 ± 9.9 mL/min/kg
  half-life: 1.72 ± 0.03 h
[1]; ref 18, 19, 20, 21, 22, 23
  reported plasma CL: 69 mL/min/kg
[1]; ref 47
  plasma CL: about 45 ml/min/kg
  renal CL: about 13 ml/min/kg
[3]
  reported K puu,brain: 1.80
[4]; [6]
  Kp: 1.56
[4]; [7]
  Kp: 2.13

## NC(=O)N1c2ccccc2C=Cc2ccccc21 [Carbamazepine, carbamazepine]
[1]; ref 24, 25, 26, 27
  reported plasma CL: 15.0 mL/min/kg
[1]; ref 34
  N-glucuronide as share of the administered dose: 20%–30%
Parental MDCK cell
  P app: 27.5 ×10⁻⁶ cm/s
[4]; [6]
  Kp: 0.913 ± 0.169
[4]; [7]
  Kp: 1.02 ± 0.27

## Cc1cc(=O)n(-c2ccccc2)n1C [Antipyrine]
[1]; ref 24, 25, 26, 27
  reported plasma CL: 4.80 mL/min/kg
[4]; [6]
  Kp: 0.932 ± 0.178
[4]; [7]
  Kp: 0.771 ± 0.215

## C[C@H]1O[C@@H](O[C@H]2[C@@H](O)C[C@H](O[C@H]3[C@@H](O)C[C@H](O[C@H]4CC[C@@]5(C)[C@H](CC[C@@H]6[C@@H]5C[C@@H](O)[C@]5(C)[C@@H](C7=CC(=O)OC7)CC[C@]65O)C4)O[C@@H]3C)O[C@@H]2C)C[C@H](O)[C@@H]1O [Digoxin, digoxin]
[1]; ref 20, 26, 36, 37
  reported plasma CL: 17.3 mL/min/kg
[1]; ref 24, 25, 26, 27
  reported plasma CL: 17.3 mL/min/kg
[1]; ref 26
  non-renal CL (biliary excretion + hepatic metabolism) as share of total CL: 70%–80%
  renal CL as share of total CL: 20%–30%

## NCC1(CC(=O)O)CCCCC1 [Gabapentin, gabapentin]
[2]
  Vd: 0.451 ± 0.001 L/kg
  clearance: 1.53 ± 0.31 mL/min/kg
  half-life: 3.58 ± 0.87 h
[4]; [6]
  Kp: 2.23
[4]; [7]
  Kp: 1.39 ± 0.51

## CC(C)NCC(O)COc1ccc(CC(N)=O)cc1 (stereo not shown) [Atenolol, atenolol]
[5]
  share eliminated via the kidneys: > 95%

## C=C[C@H]1C[N@@]2CC[C@H]1C[C@@H]2[C@@H](O)c1ccnc2ccc(OC)cc12 [Quinidine, quinidine]
[4]; [6]
  Kp: 0.677 ± 0.27
[4]; [7]
  Kp: 1.75 ± 0.64

## CC1COc2c(N3CCN(C)CC3)c(F)cc3c(=O)c(C(=O)O)cn1c23 (stereo not shown) [Ofloxacin, ofloxacin]
[1]; ref 20, 26, 36, 37
  reported plasma CL: 27.5 mL/min/kg
[1]; ref 36
  non-renal CL (biliary excretion + metabolism) as share of total CL: about 45%
  renal CL: about 15 ml/min/kg
  renal CL as share of total CL: 55%
  total CL: 27.5 mL/min/kg
[4]; [6]
  Kp: ~0.501
[4]; [7]
  Kp: 0.641 ± 0.206
